# From ChEMBL document CHEMBL1201862, “PubChem BioAssay data set” (2004)
#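 The compound was tested at five concentrations on cells cultured in 96-well plates, with a 48-hour exposure period. GI50 marks 50% less growth.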 Activity calls are given as the source filed them. No stated cut-off is given here; in the data, active = GI50 up to about 1.1 µM and inactive = higher.
# What was measured:
# Experiment in all cases: DTP human tumour cell line panel, 48 h
# [1] = system: MDA-MB-231
# [2] = system: ACHN
# [3] = system: Hs-578T
# [4] = system: NCI-H522
# [5] = system: HL-60
# [6] = system: MOLT-4
# [7] = system: A549
# [8] = system: HCT-15
# [9] = system: LOX IMVI
# [10] = system: NCI-H460
# [11] = system: SF-268
# [12] = system: K562
# [13] = system: MDA-N
# [14] = system: MDA-MB-435
# [15] = system: HCC 2998
# [16] = system: NCI/ADR-RES
# [17] = system: SNB-19
# [18] = system: T47D
# [19] = system: U-251
# [20] = system: DU-145
# [21] = system: SK-MEL-28
# [22] = system: HT-29
# [23] = system: CCRF-CEM
# [24] = system: OVCAR-3
# [25] = system: OVCAR-5
# [26] = system: SNB-75
# [27] = system: PC-3
# [28] = system: SF-295
# [29] = system: KM12
# [30] = system: NCI-H23
# [31] = system: RPMI-8226
# [32] = system: TK-10
# [33] = system: UACC-62
# [34] = system: SK-OV-3
# [35] = system: OVCAR-4
# [36] = system: IGROV-1
# [37] = system: EKVX
# [38] = system: BT-549
# [39] = system: SF-539
# [40] = system: SW-620
# [41] = system: HOP-62
# [42] = system: MCF7
# [43] = system: OVCAR-8
# [44] = system: SK-MEL-2
# [45] = system: CAKI-1
# [46] = system: HOP-92
# [47] = system: SN12C
# [48] = system: COLO 205
# [49] = system: SK-MEL-5
# [50] = system: HCT-116
# [51] = system: UACC-257
# [52] = system: SR
# [53] = system: M14
# [54] = system: 786-0
# [55] = system: UO-31
# [56] = system: Malme-3M
# [57] = system: A498
# [58] = system: NCI-H226
# [59] = system: RXF 393
smiles,measurement,setting,value
O=C1CSC(c2ccc(Cl)cc2)N1c1ccc(-c2ccc(-n3c(-c4ccccc4)nc4ccccc4c3=O)cc2)cc1 (stereo not drawn),GI50,[1],38.8 µM (inactive)
same,GI50,[2],58.6 µM (inactive)
same,GI50,[3],28.8 µM (inactive)
same,GI50,[4],25.2 µM (inactive)
same,GI50,[5],> 100 µM (inactive)
same,GI50,[6],17.7 µM (inactive)
same,GI50,[7],37.5 µM (inactive)
same,GI50,[8],33.2 µM
same,GI50,[9],17.7 µM (inactive)
same,GI50,[10],67.1 µM (inactive)
same,GI50,[11],21.6 µM (inactive)
same,GI50,[12],37.2 µM (inactive)
same,GI50,[13],32.1 µM (inactive)
same,GI50,[14],27.4 µM (inactive)
same,GI50,[15],93.5 µM (inactive)
same,GI50,[16],20 µM (inactive)
same,GI50,[17],38.5 µM (inactive)
same,GI50,[18],13.8 µM (inactive)
same,GI50,[19],21.8 µM (inactive)
same,GI50,[20],49.1 µM (inactive)
same,GI50,[21],41.1 µM (inactive)
same,GI50,[22],15.2 µM (inactive)
same,GI50,[23],30.6 µM (inactive)
same,GI50,[24],> 100 µM (inactive)
same,GI50,[25],> 10 µM (inactive)
same,GI50,[26],4 µM (inactive)
same,GI50,[27],26.1 µM (inactive)
same,GI50,[28],37.5 µM (inactive)
same,GI50,[29],26.2 µM (inactive)
same,GI50,[30],34.1 µM (inactive)
same,GI50,[31],55.7 µM (inactive)
same,GI50,[32],69 µM (inactive)
same,GI50,[33],20.2 µM (inactive)
same,GI50,[34],31.1 µM (inactive)
same,GI50,[35],19.3 µM (inactive)
same,GI50,[36],19 µM (inactive)
same,GI50,[37],56.9 µM (inactive)
same,GI50,[38],19 µM (inactive)
same,GI50,[39],24.1 µM (inactive)
same,GI50,[40],11.8 µM (inactive)
same,GI50,[41],61.4 µM (inactive)
same,GI50,[42],30.7 µM (inactive)
same,GI50,[43],54.8 µM (inactive)
same,GI50,[44],51.5 µM (inactive)
same,GI50,[45],29.4 µM (inactive)
same,GI50,[46],11.4 µM (inactive)
same,GI50,[47],68.1 µM (inactive)
same,GI50,[48],27.8 µM (inactive)
same,GI50,[49],24.2 µM (inactive)
same,GI50,[50],24.8 µM (inactive)
same,GI50,[51],> 100 µM (inactive)
same,GI50,[52],28.2 µM (inactive)
same,GI50,[53],43.6 µM (inactive)
same,GI50,[54],27.4 µM (inactive)
same,GI50,[55],10.6 µM (inactive)
same,GI50,[56],28.4 µM (inactive)
same,GI50,[57],51.2 µM (inactive)
COC/C=C\[C@@]1(O)CCCC[C@@H]1CC(OC)OC,GI50,[1],> 100 µM (inactive)
same,GI50,[2],10.1 µM (inactive)
same,GI50,[3],37.2 µM (inactive)
same,GI50,[4],17.5 µM (inactive)
same,GI50,[5],6.98 µM (inactive)
same,GI50,[6],9.46 µM (inactive)
same,GI50,[7],68.7 µM (inactive)
same,GI50,[8],27.4 µM
same,GI50,[9],7.03 µM (inactive)
same,GI50,[10],33.3 µM (inactive)
same,GI50,[11],30.2 µM (inactive)
same,GI50,[12],11.9 µM (inactive)
same,GI50,[13],33.7 µM (inactive)
same,GI50,[14],28.3 µM (inactive)
same,GI50,[15],> 100 µM (inactive)
same,GI50,[16],38.2 µM (inactive)
same,GI50,[17],43.6 µM (inactive)
same,GI50,[18],34.1 µM (inactive)
same,GI50,[19],31.8 µM (inactive)
same,GI50,[20],38.5 µM (inactive)
same,GI50,[21],37.4 µM (inactive)
same,GI50,[22],> 59.6 µM (inactive)
same,GI50,[23],19.2 µM (inactive)
same,GI50,[24],54.5 µM (inactive)
same,GI50,[25],> 100 µM (inactive)
same,GI50,[26],60 µM (inactive)
same,GI50,[27],49.5 µM (inactive)
same,GI50,[28],43.4 µM (inactive)
same,GI50,[29],31 µM (inactive)
same,GI50,[30],39.6 µM (inactive)
same,GI50,[31],22.8 µM (inactive)
same,GI50,[32],> 100 µM (inactive)
same,GI50,[33],11.7 µM (inactive)
same,GI50,[34],> 100 µM (inactive)
same,GI50,[35],31.8 µM (inactive)
same,GI50,[36],32.5 µM (inactive)
same,GI50,[37],> 100 µM (inactive)
same,GI50,[38],64 µM (inactive)
same,GI50,[39],48.5 µM (inactive)
same,GI50,[40],32.5 µM (inactive)
same,GI50,[41],36.2 µM (inactive)
same,GI50,[42],2.75 µM (inactive)
same,GI50,[43],29.9 µM (inactive)
same,GI50,[44],> 100 µM (inactive)
same,GI50,[45],> 100 µM (inactive)
same,GI50,[46],> 100 µM (inactive)
same,GI50,[47],17.5 µM (inactive)
same,GI50,[48],> 95.5 µM (inactive)
same,GI50,[58],> 59.2 µM (inactive)
same,GI50,[49],> 94.2 µM (inactive)
same,GI50,[59],> 54.3 µM (inactive)
same,GI50,[50],22.7 µM (inactive)
same,GI50,[51],> 100 µM (inactive)
same,GI50,[52],37.3 µM (inactive)
same,GI50,[53],46.7 µM (inactive)
same,GI50,[54],30 µM (inactive)
same,GI50,[55],32.1 µM (inactive)
same,GI50,[56],77.4 µM (inactive)
COc1ccc(CCCCNCc2cccc(CNCCCCc3ccc(OC)cc3)c2)cc1,GI50,[1],1.87 µM (inactive)
same,GI50,[2],1.83 µM (inactive)
same,GI50,[3],1.69 µM (inactive)
same,GI50,[4],1.88 µM (inactive)
same,GI50,[5],1.77 µM (inactive)
same,GI50,[6],2.18 µM (inactive)
same,GI50,[7],2.15 µM (inactive)
same,GI50,[8],1.77 µM
same,GI50,[9],1.6 µM (inactive)
same,GI50,[10],2.39 µM (inactive)
same,GI50,[11],1.76 µM (inactive)
same,GI50,[12],1.36 µM (inactive)
same,GI50,[13],2 µM (inactive)
same,GI50,[14],1.79 µM (inactive)
same,GI50,[15],0.308 µM (active)
same,GI50,[16],1.8 µM (inactive)
same,GI50,[17],1.71 µM (inactive)
same,GI50,[18],2.06 µM (inactive)
same,GI50,[19],1.85 µM (inactive)
same,GI50,[20],1.88 µM (inactive)
same,GI50,[21],1.84 µM (inactive)
same,GI50,[22],1.82 µM (inactive)
same,GI50,[23],1.67 µM (inactive)
same,GI50,[24],1.88 µM (inactive)
same,GI50,[25],2.09 µM (inactive)
same,GI50,[26],1.76 µM (inactive)
same,GI50,[27],1.79 µM (inactive)
same,GI50,[28],1.93 µM (inactive)
same,GI50,[29],1.77 µM (inactive)
same,GI50,[30],1.78 µM (inactive)
same,GI50,[31],2.67 µM (inactive)
same,GI50,[32],2.07 µM (inactive)
same,GI50,[33],1.85 µM (inactive)
same,GI50,[34],2.08 µM (inactive)
same,GI50,[35],2.03 µM (inactive)
same,GI50,[36],1.74 µM (inactive)
same,GI50,[37],1.81 µM (inactive)
same,GI50,[38],1.81 µM (inactive)
same,GI50,[39],1.96 µM (inactive)
same,GI50,[40],2.23 µM (inactive)
same,GI50,[41],2.19 µM (inactive)
same,GI50,[42],1.54 µM (inactive)
same,GI50,[43],1.8 µM (inactive)
same,GI50,[44],1.91 µM (inactive)
same,GI50,[45],1.8 µM (inactive)
same,GI50,[46],1.44 µM (inactive)
same,GI50,[47],2.04 µM (inactive)
same,GI50,[48],2.18 µM (inactive)
same,GI50,[58],0.385 µM (active)
same,GI50,[49],1.66 µM (inactive)
same,GI50,[59],1.64 µM (inactive)
same,GI50,[50],1.94 µM (inactive)
same,GI50,[51],2.59 µM (inactive)
same,GI50,[52],1.79 µM (inactive)
same,GI50,[53],1.69 µM (inactive)
same,GI50,[54],2.1 µM (inactive)
same,GI50,[55],1.35 µM (inactive)
same,GI50,[56],2 µM (inactive)
